Results from patent publication US6468782B1, “Methods of preserving prokaryotic cells and compositions obtained thereby” (priority 1996, dated 2002).
Like-named read-outs stand apart in the source and are kept apart here.

Experiments:
E. coli 9484 = assay: Viable cell recovery (plate assay, CFU) of trehalose-induced E. coli Q-T4 dried with different excipients and stored at 37° C.; type: cell-based
Procedure: Viability was determined immediately after completion and at various times during storage at 37° C. using a plate assay. For the plate assay, serial 10-fold dilutions of cells were set up by using minimal medium minus a carbon source as a sterile diluent.
Thirty μl of the cell suspension from the sixth dilution tube was added to each of 3 LB (Luria-Bertuni) plates, using a sterile glass spreader to spread the culture over the entire surface of the plate. The plates were incubated overnight at 37° C., and the colonies counted.
E. coli strain 9894 was inoculated in 100 ml batch cultures of minimal medium related to M9 but with high (0.5M) salt content as described in Example 2. Cells were grown for 22 hours at 37° C. in a shaking incubator (early stationary phase). Samples of cultures were removed for trehalose determination (3×1 ml) and protein estimation by the Bradford assay (3×10 ml; Bio-Rad). Trehalose concentration was expressed as μmol (mg protein)^−1.
Two 30 ml aliquots from each flask were harvested by centrifugation at 10,000 rpm for 10 minutes. Cell pellets were resuspended in 8 ml of 25-45% sugar, 0.1% CMC (sodium carboxymethyl cellulose; Blanose 7HF; Aqualon). The suspensions were then pooled to a total volume of 16 ml with a typical cell density of 4-8×10^9 CFU/ml and 300 μl aliquots dispensed into 3 ml pharmaceutical vials.
Bacteria were dried under vacuum without freezing using the following protocol: vacuum, 30 mT; initial shelf temperature 40° C. for 16 hours, followed by ramping to 80° C. at a rate of 2.5° C./min in increments of 2° C. with a holding time of 12 minutes per increment. Foaming occurred between 60-120 minutes of initial drying.
Viability was determined immediately before and after the completion of the drying procedure and at various times during storage at 37° C. using a plate assay as described in Example 2. The residual moisture content and the glass transition temperature were also determined.

E. coli = assay: Intracellular trehalose production in E. coli under osmotic shock with different salts; type: cell-based
Procedure: E. coli NCIMB strain 9484 was cultured in Evans medium (pH 7.0; Table 1) containing one of a variety of agents for increasing osmotic pressure. After overnight incubation at 37° C. in initial Evans medium, a 4 ml culture of E. coli grown in Evans medium under nitrogen limitation was used to inoculate a 200 ml culture of Evans medium osmotic shock.
Intracellular trehalose concentration was measured as described below at various times after the initiation of osmotic shock.
Intracellular concentration of trehalose was determined using high pressure liquid chromatography (HPLC) as follows. Trehalose standards were prepared by first making 10 mM trehalose in 70% ethanol, followed by 10-fold serial dilution from 10 mM to 10 nM using 70% ethanol as diluent. […]
Cell samples were prepared for analysis by disrupting the cell wall by sonication (any other method such as mortar and pestle, osmotic lysis, beads can be used) coupled with the preferential solubilization of trehalose in 70% ethanol, followed by removing triglycerides by chloroform extraction. […] The pellet volume was determined by measuring the relative increase in the initial volume following resuspension of the cells. […]
Quantitation of trehalose was achieved by HPLC (Beckman Instruments), using a Dionex CarboPac PA 100 analytical column, with a Dionex ED40 pulsed amperometric electrochemical detector. […]

OC[C@@H](O)[C@@H](O[C@@H]1O[C@H](CO)[C@H](O)[C@H](O)[C@H]1O)[C@H](O)[C@@H](O)CO [Lactitol, 4-O-β-D-galactopyranosyl-D-glucitol]
% Viable Cell Recovery after storage at 37° C., Day 0 (E. coli 9484; E. coli, 0 day): 42%
% Viable Cell Recovery after storage at 37° C., Week 3 (E. coli 9484; E. coli, 3 weeks): 36%
% Viable Cell Recovery after storage at 37° C., Week 6 (E. coli 9484; E. coli, 6 weeks): 34%

OC[C@H]1O[C@H](O[C@H]2O[C@H](CO)[C@@H](O)[C@H](O)[C@H]2O)[C@H](O)[C@@H](O)[C@@H]1O [Trehalose, α-D-glucopyranosyl-α-D-glucopyranoside]
% Viable Cell Recovery after storage at 37° C., Week 3 (E. coli 9484; 3 weeks storage at 37° C., 25-45% sugar, 0.1% CMC): 52%
% Viable Cell Recovery after storage at 37° C., Week 6 (E. coli 9484; 6 weeks storage at 37° C., 25-45% sugar, 0.1% CMC): 45%
% Viable Cell Recovery after storage at 37° C., Day 0 (E. coli 9484; immediately after completion of Q-T4 drying, 25-45% sugar, 0.1% CMC): 36%

N.N.O=S(=O)(O)O [ammonium sulfate]
amount of intracellular trehalose concentration stimulated, relative to NaCl, CaCl2 or KCl (E. coli): about half

Palatinit
% Viable Cell Recovery after storage at 37° C., Day 0 (E. coli 9484): 49%
% Viable Cell Recovery after storage at 37° C., Week 3 (E. coli 9484): 49%
% Viable Cell Recovery after storage at 37° C., Week 6 (E. coli 9484): 51%
